In PubChem BioAssay AID1419 (Emory University Molecular Libraries Screening Center, 2008) one finds IC50 and fold change data, which are given here for 66 compounds.

This assay is described as follows: blockers of an Epstein-Barr virus protein-peptide interaction – biochemical, fluorescence polarization, dose response (AID 1419). To be noted: cell-free protein-peptide binding, 2 h; for fold change: measured here: P channel fold over control, at 54 µM.

SMILES strings stand for the structures. Calls of active or inactive are those of the source. The rule behind the calls is not given here.

The term IC50 denotes the concentration needed to halve the response being measured. As for `CCCN1C(=O)c2cccc3c(N4CCCCC4)ccc(c23)C1=O`, the IC50 is > 54 µM (inactive) and the fold change was determined as 15.2.

Consider `CC1=C/C(=C\c2ccc(Br)o2)C(=O)O1`, for which the IC50 was > 54 µM (inactive) and the fold change came to 0.98.

In the case of `CCCCn1c(=O)[nH]c2nc3cc(N)ccc3nc2c1=O`, the 50% inhibitory concentration (IC50) was less than 0.42 µM and the fold change was 110.

For `CCOc1ccccc1-c1c2cc(O)c(=O)cc-2oc2cc(O)c(O)cc12`, the IC50 is > 54 µM (inactive) and the fold change turned out to be 232.

For the compound `CCCSCCCNC(=O)CC1Oc2ccccc2NC1=O` (configuration not stated), the IC50 was > 54 µM (inactive) and the fold change was found to be 1.09.

As for `CC(=O)c1ccc(Nc2c3c(nc4ccccc24)CCCC3)cc1`, the IC50 was > 54 µM (inactive) and the fold change worked out at 0.95.

Turning to `CCN1CC=C2C(C1)C(c1ccc(Cl)s1)C(C#N)=C(N)C2(C#N)C#N` (configuration not stated), the IC50 was 0.95 µM and the fold change was determined as 9.28.

For `Cc1ccc(C(NC(=O)C2CCCCC2)c2c(O)ccc3ccccc23)cc1` (configuration not stated), the IC50 was > 54 µM (inactive) and the fold change was 1.03.

In the case of `CC1=CC(=C(C#N)c2nc3ccccc3s2)C=C(C)N1CC1CCCO1` (configuration not stated), the IC50 is 3.9 µM and the fold change came out at 9.43.

As to `COC(=O)C1C=C2c3cccc4[nH]cc(c34)CC2N(C)C1` (configuration not stated), the IC50 was 1.66 µM and the fold change was determined as 6.81.

Turning to `Cc1cc(N2CCCC2)ccc1C=C(C#N)C#N`, the IC50 was 1.86 µM and the fold change stood at 15.3.

Take `O=C(NC1CC1)c1cc(-c2ccco2)nc2ccccc12`: the IC50 is 3.96 µM and the fold change worked out at 1.06.

As to `CC(=O)c1ccc2noc(-c3ccc(F)cc3)c2c1`, the 50% inhibitory concentration (IC50) is 3.34 µM and the fold change was found to be 4.39.

On to `COc1cc([N+](=O)[O-])ccc1-c1ccc(/C=N/NC(=O)c2ccccc2O)o1`, for which the IC50 is > 54 µM (inactive) and the fold change amounted to 0.5.

As to `O=Cc1ccc2noc(-c3ccc(F)cc3)c2c1`, the concentration for half-maximal inhibition (IC50) is 1.47 µM and the fold change was 5.46.

In the case of `CCN(CC)c1ccc(/C=c2/sc3nnc(-c4ccccc4C)n3c2=O)cc1`, the IC50 was 3.39 µM and the fold change worked out at 17.4.

`CCOC(=O)c1cc(-c2ccc(/C=C3/C(=O)NC(=O)C(C#N)=C3C)o2)ccc1Cl`: the IC50 is less than 0.42 µM and the fold change was found to be 2.14.

Turning to `Cc1nn(-c2ccccc2)c2c1C(c1ccc(O)c(O)c1)N1C(=N2)C(Nc2ccccc2)=Nc2ccccc21` (configuration not stated), the half-maximal inhibitory concentration (IC50) was 6.05 µM and the fold change was 3.94.

As for `CN(c1ncc(C(F)(F)F)cc1Cl)N1C(=O)c2cccc(N)c2C1=O`, the concentration for half-maximal inhibition (IC50) is 3.83 µM and the fold change is 1.88.

As to `CC1=NOC(=O)/C1=C\c1ccc(-c2cc(Cl)ccc2Cl)o1`, the IC50 is 1.49 µM and the fold change worked out at 4.14.

As for `O=C(c1ccco1)[C@@H]1[C@@H]2C(=O)N(c3ccc(F)cc3)C(=O)[C@@H]2C2c3ccccc3C=CN21` (some centres not stated), the IC50 is 6.26 µM and the fold change was 2.53.

In the case of `O=C(O)CSc1cc(C(=O)c2ccccc2O)cn2c(=O)c3c4c(sc3nc12)CCCC4`, the IC50 is > 54 µM (inactive) and the fold change stood at 1.02.

Turning to `CCCN(CCC)S(=O)(=O)c1ccc(C(=O)OCCN2C(=O)c3cccc4c(N5CCOCC5)ccc(c34)C2=O)cc1`, the IC50 was 1.5 µM and the fold change came to 96.6.

Turning to `Cc1cccc2c3nc4ccccc4nc3n(CCCN3C(=O)c4ccccc4C3=O)c12`, the half-inhibitory concentration (IC50) is 15.9 µM and the fold change is 3.01.

In the case of `CN(C)c1ccnc2sc(C(=O)c3ccc(Br)cc3)c(N)c12`, the IC50 is > 54 µM (inactive) and the fold change amounted to 0.973.

As for `Cc1cc(/C=N/NC(N)=S)c(O)c(/C=N/NC(N)=S)c1`, the half-maximal inhibitory concentration (IC50) is less than 0.42 µM and the fold change came out at 26.6.

`C/C=C/C=C/[C@H]1Cc2cc(O)cc(O)c2O1`: the IC50 is 13 µM and the fold change worked out at 2.04.

As for `CSc1nc(SCC(=O)O)c2sc3nc(-c4ccccc4)c4c(c3c2n1)CCC4`, the half-maximal inhibitory concentration (IC50) is 3.47 µM and the fold change came out at 1.08.

On to `CCN1C(=O)/C(=C\c2ccc(-c3ccc([N+](=O)[O-])cc3OC)o2)SC1=Nc1cccc(C(=O)O)c1`, for which the IC50 is > 54 µM (inactive) and the fold change is 0.573.

As for `Cc1cc2nc3c(=O)n(Cc4ccccc4)c(=O)[nH]c3nc2cc1N`, the IC50 was less than 0.42 µM and the fold change turned out to be 87.1.

`Cc1cc(=O)oc2c(CN3CCC(C)CC3)c(O)c(Cl)cc12`: the IC50 was 2.42 µM and the fold change was determined as 2.16.

Take `CC(C)CSC1=NSC2=NC(=O)/C(=C\c3coc4ccccc4c3=O)C(=N)N12`: the IC50 was > 54 µM (inactive) and the fold change is 33.

With `N#C/C(=C\C1=C(N2CCOCC2)C(=C/c2cccc([N+](=O)[O-])c2)/CC1)C(=O)Nc1ccccc1F`, the half-maximal inhibitory concentration (IC50) was 3.64 µM and the fold change is 2.26.

Take `CCOC(=O)/C(C#N)=C/c1ccc(N2CCN(Cc3ccccc3)CC2)cc1`: the IC50 was 40.3 µM (inactive) and the fold change worked out at 9.09.

On to `Cc1ccc(S(=O)(=O)c2cc3c(=O)n4ccccc4nc3n(Cc3ccco3)c2=N)cc1`, for which the IC50 is > 54 µM (inactive) and the fold change amounted to 1.74.

On to `CCn1c(SC(C)C(=O)O)nc2sc3c(c2c1=O)CCC3` (configuration not stated), for which the IC50 is > 54 µM (inactive) and the fold change is 1.12.

As for `O=C1CCN2C=Nc3cccc4ccc1c2c34`, the 50% inhibitory concentration (IC50) was less than 0.42 µM and the fold change is 171.

`COc1ccc2c(c1)c1nc3ccccc3nc1n2Cc1ccc(OC)c(OC)c1`: the IC50 was > 54 µM (inactive) and the fold change was 2.

Take `O=C(N/N=C/c1cccc(F)c1)c1cc(-c2ccco2)nc2ccccc12`: the half-inhibitory concentration (IC50) was 3.61 µM and the fold change is 1.06.

`Nc1c(C(=O)NCC2CCCO2)sc2nc3c(c(-c4ccco4)c12)CC/C3=C\c1ccco1` (configuration not stated): the half-maximal inhibitory concentration (IC50) was less than 0.42 µM and the fold change was determined as 3.22.

Regarding `COc1ccc(-c2onc3ccc(Br)cc23)cc1`, the IC50 was 0.86 µM and the fold change turned out to be 7.24.

As to `COc1cc(CN2CCN(c3cccc(C)c3C)CC2)cc(OC)c1O`, the IC50 was > 54 µM (inactive) and the fold change is 1.03.

On to `N#CC(C#N)=Cc1ccc(-c2ccccc2F)o1`, for which the half-inhibitory concentration (IC50) is 5.06 µM and the fold change turned out to be 18.8.

As for `Cc1cc(C=C2C(=O)c3ccccc3C2=O)c(C)n1-c1ccc(Cl)cc1`, the IC50 was 8.5 µM and the fold change was determined as 6.3.

For `COc1ccc(OC)c2c1C(=O)c1ccccc1C2=O`, the IC50 is less than 0.42 µM and the fold change came out at 41.6.

For `O=[N+]([O-])c1ccc(-c2nc3ccc([N+](=O)[O-])cc3[nH]2)cc1`, the IC50 is > 54 µM (inactive) and the fold change was 1.04.

With `COc1ccc(C2CC(c3ccccc3)n3nc(NC(=O)c4cccs4)nc3N2)cc1` (configuration not stated), the IC50 was > 54 µM (inactive) and the fold change was found to be 0.943.

Turning to `CCc1nn2c(=O)cc(COc3ccc(/C=C4\C(=N)N5N=C(C)SC5=NC4=O)cc3)nc2s1`, the IC50 was 16.6 µM and the fold change was 1.14.

In the case of `Cc1nn(-c2ccccc2)c(N2CCCC2)c1/C=C1\N=C(c2ccc(F)cc2)OC1=O`, the IC50 is 7.44 µM and the fold change was found to be 5.64.

As to `CCN(CC)C(=O)COC(=O)c1cc(-c2ccco2)nc2ccccc12`, the half-maximal inhibitory concentration (IC50) was 28.4 µM and the fold change is 1.44.

`COc1ccc(-c2c(C#N)c(N)nc3sc(C(=O)c4ccccc4)c(N)c23)cc1`: the IC50 was 6.7 µM and the fold change came out at 7.69.

Take `CC1(C)CC(=O)C2=C(C1)OC(N)=C(C#N)[C@@H]2c1ccccc1[N+](=O)[O-]`: the half-inhibitory concentration (IC50) is 2.27 µM and the fold change was determined as 4.78.

Take `COc1ccc(OC)c(/C=C2\SC(=S)N(Cc3cccnc3)C2=O)c1`: the IC50 was 6.71 µM and the fold change worked out at 5.16.

Consider `Cc1ccc(C)c2nc3sc(C(=O)N4CCCc5ccccc54)c(N)c3cc12`, for which the half-maximal inhibitory concentration (IC50) was 1.24 µM and the fold change is 11.6.

Take `COC(=O)C1=COC(C)C2CN3CCc4c([nH]c5cc(OC)c(OC)cc45)C3CC12` (configuration not stated): the IC50 is 8.76 µM and the fold change came to 2.6.

Regarding `OCCCc1nc2n(n1)C(c1cccs1)C=C(c1ccc(Br)cc1)N2` (configuration not stated), the IC50 was less than 0.42 µM and the fold change came to 37.6.

For `Cc1cccc(NC(=O)CSc2nnnn2C)n1`, the IC50 was > 54 µM (inactive) and the fold change is 1.02.

On to `CCCCNc1c2c3c(cccc3n(C)c1=O)C(=O)c1ccccc1-2`, for which the 50% inhibitory concentration (IC50) was less than 0.42 µM and the fold change worked out at 150.

Consider `CCN(CC)c1ccc2cc(NC(=O)CCC(=O)O)c(=O)oc2c1`, for which the IC50 is 1.17 µM and the fold change is 12.

On to `CC(=O)Oc1ccc(C(=O)Nc2cccc(C(=O)c3cccc(NC(=O)c4ccc(OC(C)=O)cc4)c3)c2)cc1`, for which the IC50 is > 54 µM (inactive) and the fold change turned out to be 0.997.

Turning to `COc1ccc2c3c(cccc13)C(=O)N(O)C2=O`, the IC50 was 4.72 µM and the fold change was 2.23.

With `CC(C)[C@H]1C(=O)N2CCC[C@H]2[C@]2(O)O[C@](NC(=O)[C@@H]3C=C4c5cccc6[nH]cc(c56)C[C@H]4N(C)C3)(C(C)C)C(=O)N12`, the half-maximal inhibitory concentration (IC50) was 3.64 µM and the fold change came to 5.11.

`COc1ncnc2c1NC1=C(S2)C(=NCCC(=O)O)CC(C)(C)C1`: the 50% inhibitory concentration (IC50) is 0.93 µM and the fold change is 8.12.

As to `O=C(Nc1nnc(-c2ccccc2Cl)o1)c1cc2cc([N+](=O)[O-])ccc2s1`, the IC50 was > 54 µM (inactive) and the fold change is 1.09.

`CCOc1ccc(-n2c(O)c(C=Nc3ccc(N(CC)CC)cc3)c(=O)[nH]c2=O)cc1`: the half-inhibitory concentration (IC50) is 7.18 µM and the fold change was 9.37.

Turning to `CCCn1c(O)c(N=Nc2ccc3ccccc3n2)c2ccccc21`, the IC50 was > 54 µM (inactive) and the fold change was 1.5.
